The text below walks through data of US12440457B2, “Methods of treating suicidality” (Seelos Therapeutics, Inc., priority 2020, dated 2025).

The test system of series [1] is adults with major depressive disorder at imminent risk of suicide. As to the kind of experiment: Phase 2 study, MADRS total score. The class given is in vivo, human. From the text:
The Montgomery-Asberg Depression Rating Scale (MADRS) is a diagnostic questionnaire that can be used to measure the severity of a depressive episode in a subject. In some embodiments, the MADRS can be used to measure suicidal ideation. For example, the MADRS includes 10 items directed to the following: 1) apparent sadness (e.g., representing despondency, gloom and despair that is more than just ordinary transient low spirits that is reflected in speech, facial expression, and posture); 2) reported sadness (e.g., representing reports of depressed mood, regardless of whether it is reflected in appearance or not and can include low spirits, despondency or the feeling of being beyond help and without hope); 3) inner tension (e.g., representing feelings of ill-defined discomfort, edginess, inner turmoil, mental tension mounting to either panic, dread or anguish); 4) reduced sleep (e.g., representing the experience of reduced duration or depth of sleep compared to the subject's own normal pattern when well); 5) reduced appetite (e.g., representing the feeling of a loss of appetite compared with when-well); 6) concentration difficulties (e.g., representing difficulties in collecting one's thoughts mounting to an incapacitating lack of concentration); 7) lassitude (e.g., representing difficulty in getting started or slowness in initiating and performing everyday activities); 8) inability to feel (e.g., representing the subjective experience of reduced interest in the surroundings, or activities that normally give pleasure, and the ability to react with adequate emotion to circumstances or people is reduced); 9) pessimistic thoughts (e.g., representing thoughts of guilt, inferiority, self-reproach, sinfulness, remorse and ruin); and 10) suicidal thoughts (e.g., representing the feeling that life is not worth living, that a natural death would be welcome, suicidal thoughts, and preparations for suicide). Each item is rated from 0 to 6, with 0 reflecting that the subject is not at all as described by the item and 6 reflecting that the subject is extremely like what is described by the item. […] As another example, for suicidal thoughts, a score of 0 can indicate that the subject enjoys life or takes it as it comes; a score of 2 can indicate that the subject is weary of life and may have fleeting suicidal thoughts; a score of 4 can indicate that the subject feels he or she would probably be better off dead (e.g., suicidal thoughts are common, and suicide is considered as a possible solution, but without specific plans or intention); and a score of 6 can indicate that the subject has explicit plans for suicide when there is an opportunity (e.g., the subject has made active preparations for suicide). […]

Series [2] has the same test system. As to the kind of experiment: Phase 2 study, MADRS item 10 (suicidality). Format: in vivo, human. Particulars: baseline 5. From the text: The Montgomery-Asberg Depression Rating Scale (MADRS) is a diagnostic questionnaire that can be used to measure the severity of a depressive episode in a subject. In some embodiments, the MADRS can be used to measure suicidal ideation. […]

Series [3] shares this test system. In words: Phase 2 study, S-STS CMCM total score. The class given is in vivo, human. From the text:
The S-STS CMCM (version 01/01/19) is a clinician-rated outcome measure which assesses SIB on a standard 22-item scale, as well as multiple patient and clinician-rated items. The first 16 items are rated on a Likert-type scale ranging from “not at all” (0) to “extremely” (4), where select scoring (i.e., 4 specific items are scored based on the highest score on 2 of those items) yields a total score ranging from 0 to 52. The final 6 items are used only when the patient misses a visit and is unable to complete the scale; if that missed visit is due to attempted or completed suicide, the possible maximum score is 100. The CMCM also yields 5 different single-item global assessments: 1) subject-rated likelihood of a suicide attempt; 2) subject-rated treatment needed; 3) clinician global severity of suicidal impulses, thoughts, and behaviors; 4) clinician judgment of suicide risk at this time and level of management needed for suicidality; and 5) clinician judgment of subject's likelihood of making a suicide attempt or of dying by suicide in the next 7 days. […]

Series [4] has the same test system. As to the kind of experiment: Phase 2 study, S-STS CMCM risk of suicide at this time. The class given is in vivo, human. From the text:
FIGS. 20A-20B are a table (FIG. 20A) and a graph (FIG. 20B) describing the STS CMCM (“risk of suicide at this time”) scores for Subject 1 and Subject 2 from Day 1 to Day 9 described in Example 3 of the study.
(§1) The S-STS CMCM (version 01/01/19) is a clinician-rated outcome measure which assesses SIB on a standard 22-item scale, as well as multiple patient and clinician-rated items. The first 16 items are rated on a Likert-type scale ranging from “not at all” (0) to “extremely” (4), where select scoring (i.e., 4 specific items are scored based on the highest score on 2 of those items) yields a total score ranging from 0 to 52. The final 6 items are used only when the patient misses a visit and is unable to complete the scale; if that missed visit is due to attempted or completed suicide, the possible maximum score is 100. The CMCM also yields 5 different single-item global assessments: 1) subject-rated likelihood of a suicide attempt; 2) subject-rated treatment needed; 3) clinician global severity of suicidal impulses, thoughts, and behaviors; 4) clinician judgment of suicide risk at this time and level of management needed for suicidality; and 5) clinician judgment of subject's likelihood of making a suicide attempt or of dying by suicide in the next 7 days.
(§2) The secondary endpoints will be the change from baseline at 24 hours, as well as at Day 16, in the following: • (1) S-STS total score • (2) MADRS total score at Day 16 (only) • (3) Clinical Global Impression (CGI) of Severity for SI/B (CGIS-SI/B) and Change in SI/B (CGIC-SI/B) • (4) Patient Global Impression (PGI) of Severity for SI/B (PGIS-SI/B) and Change in SI/B (PGIC-SI/B • (5) S-STS Clinician-Rated Global Severity of Suicidal Impulses, Thoughts, and Behaviors • (6) S-STS Clinician judgment of subject's risk of a suicide attempt or death by suicide at this time • (7) S-STS Clinician judgment of subject's likelihood (risk) of making a suicide attempt or of dying by suicide in the next 7 days • (8) S-STS Subject-rated global severity of suicidal impulses, thoughts, and behavior • (9) S-STS Subject-rated treatment needed score • (10) MADRS item 10 response rate (response ≤3) • (11) MADRS response (total score ≥50% reduction from baseline) • (12) MADRS remission (total score ≤12) Exploratory Endpoint:
(§3) This study is currently underway.

The test system is the same in series [5]. In words: Phase 2 study, S-STS CMCM Risk of Suicide at Within the Next 7 Days. Format: in vivo, human.
From the text: FIGS. 21A-21B are a table (FIG. 21A) and a graph (FIG. 21B) describing the STS CMCM (“risk of suicide at within the next 7 day”) scores for Subject 1 and Subject 2 from Day 1 to Day 9 described in Example 3 of the study.
as §1, §2, §3

Series [6] has the same test system. In words: Phase 2 study, overall preliminary outcome. The class given is in vivo, human. Particulars: two subjects, first eight days.
From the text: as §3

For series [7] the following is noted: Leung and Baillie 1986; cited from earlier work.
The conditions of series [8]: Pham et al. 2018; cited from earlier work.
In series [9] the test system is adults with major depressive disorder at imminent risk of suicide. In words: Phase 2 study, CADSS dissociation.
The mark [10] stands for this setting: Subject 2, 24 hours post-administration, baseline 7.

On to `CNC1(c2ccccc2Cl)CCCCC1=O` (racemic) [intranasal racemic ketamine, racemic ketamine], for which the MADRS total score in [1] (Subject 1, 24 hours post-administration, 90 mg IN plus SOC, baseline 35) is on record as 8; in series [1] (Subject 2, 24 hours post-administration, 90 mg IN plus SOC, baseline 38), 15; in series [1] (Subject 2, Day 8, after second dose on Day 4), 16. Besides, the “reduction of MADRS total score” value in series [1] (both subjects, 24 hours post-administration) is over 50%. Also, the “MADRS item 10 (suicidality) score (range 0-6)” value in series [2] (Subject 1, 24 hours post-administration) stood at 0; in [2] (second subject (not given), 24 hours post-administration), 0. In addition, the “S-STS CMCM score (range 0-52)” value in [3] (Subject 1, 24 hours post-administration, baseline 18) was “zero”; in series [3] (Subject 2, 24 hours post-administration, baseline 22), 3. The “S-STS CMCM score (range 0-9), risk of suicide at this time” value in series [4] (Subject 1, 24 hours post-administration, baseline 7) was 3; in [4] (Subject 1, Day 9) it was 2; in series [4] (setting [10]) it was 3; in series [4] (Subject 2, Day 9), “zero”; in series [4] (both subjects, Day 8), 2. Moreover, the “S-STS CMCM Risk of Suicide at Within the Next 7 Days score (range 1-10)” value is reported as 2 in series [5] (Subject 1, 24 hours post-administration, baseline 5); 1 in series [5] (setting [10]); 1 in [5] (the scores, Day 4); 0 in [5] (the scores, Day 8). The “improvements in depression and suicidality, preliminary data” value in series [6] was “rapid, significant, and sustained improvements in depression and suicidality”. In addition, in series [6], the “sedation or dissociation, preliminary data” value is “no meaningful sedation or dissociation”. The “movement during the anesthetic recovery phase” value in [7] is given as “increased movement”. Moreover, in series [8], the antidepressant properties result is “exhibit antidepressant properties”. In addition, the “CADSS score (dissociation)” value in [9] (Subject 1, all time points, clinical threshold score ≥4) was “zero”; in series [9] (Subject 2, 40 minutes post-administration, clinical threshold score ≥4) it was 2; in [9] (Subject 2, 1 hour post-administration), “zero”.
As for `NC1(c2ccccc2Cl)CCCC(O)C1=O` (centres unmarked) [6-hydroxynorketamine], the antidepressant properties entry in [8] is “exhibit antidepressant properties”.
On to `NC1(c2ccccc2Cl)CCCCC1=O` (centres unmarked) [norketamine], for which, in series [7], the “movement during the anesthetic recovery phase” value is given as “increased movement”.
